From the supplement of paper PMC10307832

Legend:
Assay in all cases: relative viability (nuclei count vs DMSO), 5 days (fraction); higher = more cells survive
[1] = compound: CN[C@@H]1C[C@H]2O[C@@](C)([C@@H]1OC)n1c3ccccc3c3c4c(c5c6ccccc6n2c5c31)C(=O)NC4 [Staurosporine] + CS(=O)(=O)CCNCc1ccc(-c2ccc3ncnc(Nc4ccc(OCc5cccc(F)c5)c(Cl)c4)c3c2)o1 [Lapatinib] (partner 2 µM)
Procedure, shortened: (§1)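 A single step with final 0.05% Triton X-100, 1% formaldehyde and 1 ug/ml Hoechst fixed the cells and stained nuclei 5 days after treatment. Lung cancer cell lines in 1536-well plates had been treated by pin tool the day after seeding with one drug alone or a fixed anchor-drug dose plus five library-drug doses (not always all listed) in √10 steps, and nuclei were counted on 4× images. Relative viability is the ratio of nuclei in treated wells to nuclei in vehicle wells, taken as the median of duplicate plates.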

[2] = compound: CC1=C(CC(=O)O)c2cc(F)ccc2/C1=C\c1ccc([S+](C)[O-])cc1 [Sulindac] + CC(=O)c1c(C)c2cnc(Nc3ccc(N4CCNCC4)cn3)nc2n(C2CCCC2)c1=O [Palbociclib] (partner 0.5 µM)
Procedure, shortened: as §1

[3] = compound: CC1=C(CC(=O)O)c2cc(F)ccc2/C1=C\c1ccc([S+](C)[O-])cc1 [Sulindac] + CS(=O)(=O)N1CCN(Cc2cc3nc(-c4cccc5[nH]ncc45)nc(N4CCOCC4)c3s2)CC1 [Pictilisib] (partner 1 µM)
Procedure, shortened: as §1

[4] = compound: CN[C@@H]1C[C@H]2O[C@@](C)([C@@H]1OC)n1c3ccccc3c3c4c(c5c6ccccc6n2c5c31)C(=O)NC4 [Staurosporine] + O=C(c1cc(Cc2n[nH]c(=O)c3ccccc23)ccc1F)N1CCN(C(=O)C2CC2)CC1 [Olaparib] (partner 8 µM)
Procedure, shortened: as §1

Cell Line	relative viability ([1]; first compound 0.005 µM)	relative viability ([1]; first compound 0.01581 µM)	relative viability ([1]; first compound 0.05 µM)	relative viability ([1]; first compound 0.1581 µM)	relative viability ([1]; first compound 0.5 µM)	relative viability ([2]; first compound 0.08 µM)	relative viability ([2]; first compound 0.253 µM)	relative viability ([2]; first compound 0.8 µM)	relative viability ([2]; first compound 2.53 µM)	relative viability ([2]; first compound 8 µM)	relative viability ([3]; first compound 0.08 µM)	relative viability ([3]; first compound 0.253 µM)	relative viability ([3]; first compound 2.53 µM)	relative viability ([3]; first compound 8 µM)	relative viability ([4]; first compound 0.005 µM)	relative viability ([4]; first compound 0.01581 µM)	relative viability ([4]; first compound 0.05 µM)	relative viability ([4]; first compound 0.1581 µM)	relative viability ([4]; first compound 0.5 µM)	relative viability ([3]; first compound 0.8 µM)
PC-14	0.293	0.247	0.0956	0.0886	0.0786	0.562	0.497	0.489	0.567	0.758	0.83	0.65	0.73	0.757	0.147	0.0797	0.042	0.0556	0.043	
HARA	0.485	0.327	0.308	0.118	0.0844	0.294	0.3	0.3	0.256	0.227	0.302	0.507	0.374	0.452	0.682	0.363	0.156	0.126	0.131	
NCI-H23	0.886	0.184	0.357	0.172	0.134	0.613	0.549	0.495	0.505	0.589	0.423	0.525	0.536	0.517	0.232	0.138	0.183	0.135	0.102	0.387
LCLC-97TM1	0.864	0.168	0.285	0.174	0.381	0.201	0.244	0.203	0.212	0.277	0.198	0.214		0.187	0.42	0.12	0.194	0.236	0.191	0.18
LC-2-ad	0.957	0.127	0.47	0.0776	0.0569	0.521	0.514	0.37	0.469	0.547	0.63	0.533	0.416	0.445	0.684	0.546	0.483	0.154	0.0646	0.34
NCI-H1666	0.573	0.45	0.425	0.267	0.208	0.632	0.606	0.545	0.727	0.624		0.442	0.392	0.56	0.682	0.567	0.583	0.476	0.432	0.318
EKVX	0.152	0.135	0.162	0.156	0.1	0.396	0.35	0.31	0.339	0.465	0.409	0.487	0.475	0.516	0.562	0.392	0.272	0.216	0.13	0.381
SW 1573	1.01	1.07	0.417	0.355	0.186	0.451	0.406	0.362	0.336	0.464	0.508	0.632	0.511	0.605	0.189	0.124	0.121	0.0899	0.063	0.451
HCC-827	0.223	0.186	0.182	0.125	0.163	0.496	0.552	0.48	0.547	0.465	0.922	1.17	0.88	1.06	0.666	0.5	0.467	0.322	0.22	0.823
NCI-H727	0.666	0.324	0.307	0.388	0.181	0.621	0.643	0.566	0.627	0.667	0.46	0.252	0.404	0.349	0.638	0.422	0.413	0.434	0.419	0.381
CAL-12T	0.356	0.198	0.214	0.192	0.194	0.216	0.549	0.314	0.526	0.576	0.442	0.374	0.324	0.616	0.441	0.253	0.252	0.148	0.163	0.401
NCI-H1648						0.275	0.268		0.242	0.282					0.893	0.376	0.311	0.257	0.259	
NCI-H522						0.972	0.955	0.818	1.17	1.04					0.669	0.685	0.53	0.471	0.429	
IA-LM	0.194	0.194	0.158	0.208	0.074						0.439	0.371	0.352	0.419	0.562	0.51	0.412	0.215	0.0689	
EPLC-272H	0.787	0.194	0.513	0.175	0.149	0.255		0.323	0.305	0.318	0.293		0.284	0.361	0.41	0.148	0.139	0.0846	0.0704	0.252
A-427	0.967	0.245	0.56	0.303	0.175	0.486	0.548	0.495	0.473	0.565	0.84	0.507	0.805	0.717	0.694	0.482	0.284	0.189	0.139	0.625
NCI-H661	0.472	0.395	0.266	0.235	0.236	0.405	0.433	0.458	0.376	0.449	0.421	0.412	0.514	0.461	0.65	0.556	0.521	0.333	0.175	0.358
